Experimental data as given in US5126258A (priority 1988, dated 1992).

How the values were obtained:
Type in all cases: biochemical, mouse
[1] = tested on: monoclonal receptor P3 6D4; experiment: Stoichiometric transacylation reaction of monoclonal receptor P3 6D4 with coumarin ester Compound 5 (fluorescence) and its inhibition/inactivation
Method in brief: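 Antibody P3 6D4 (100 nM final) reacted at 23 °C with coumarin ester 5 in Tris-HCl or phosphate buffer (50 mM, pH 4–9), followed by fluorescence (ex 355/em 455 nm). Initial rates corrected for spontaneous hydrolysis; kinetic parameters from hyperbolic and double-reciprocal fits, Ki from Lineweaver-Burk with ≥5 inhibitor concentrations.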

[2] = tested on: eight monoclonal receptors 21G2, 7E5, 37G2, 13E10, 12C9, 44A2, 17G8 and 22F5; experiment: Catalyzed hydrolysis of reactant ligands by the eight QPN1 monoclonal receptors, summary; conditions: pH 8.0
Method: Mice were hyperimmunized with the Compound 13-KLH conjugate over a three to four week time period. Sera were assayed in an ELISA using a Compound 13-BSA conjugate bound to microtiter plate wells as the solid-phase antigen. Cloned hybridomas were also screened using that ELISA assay.
Each of those catalyses could be inhibited by an appropriate analog-ligand. Thus, a relatively high percentage of induced monoclonal receptors was capable of catalyzing an esterolytic reaction. The reason for this relatively high percentage of useful receptors being induced is unknown, but could be due to the presence of phosphonamidate group nitrogen atom, as compared to a phosphonate oxygen atom, or to the quinoline nucleus of the analog-ligand. Those eight catalytic monoclonal receptors and the hybridomas that secrete them are identified by the laboratory designations "QPN1 7E5", "QPN1 12C9", "QPN1 13E10", "QPN1 17G8", "QPN1 21G2", "QPN1 22F5", "QPN1 37G2" and QPN1 44A2. The prefix "QPNI" is sometimes omitted herein when discussing these hybridomas and receptors.
Amide cleavage for Compounds 14 and 15 was assayed by analyzing for the production of free aminoquinaldine or aminonaphthalene by measuring the increase in the azo dye that results from derivatizing the free aminoquinaldine or aminonapthalene with a diazotization reagent.
Catalysis reactions were conducted by preparing a reaction admixture of 100 microliters (ul) total volume containing 5 micromolar (uM) monoclonal antibody, 50-75 uM amide reactant ligand substrate and a buffer described hereinafter. The buffer included in the above admixture varied depending upon the pH utilized as follows: pH 5, 10 […] sodium acetate, 10 mM sodium chloride; pH 7.2, 10 mM sodium phosphate, 0.15 molar (M) sodium chloride; pH 8.0; 50 mM sodium phosphate. The amide-containing substrates screened in this assay were added to the above admixture in 1 ul of a 100-fold concentrated stock solution of dimethyl formamide (DMF). Monoclonal antibody was added to the above admixture from a concentrated stock solution. The resulting admixture was placed into the well of a 96 well flat bottom microtiter plate (Costar, Cambridge, Mass.) and maintained in a moist vapor environment chamber at 23 degrees C. The production of aminoquinaldine or aminonaphthalene was then assayed as described below after 2,3,5, or 6 days.
The aminoquinaldine or aminonapthalene product produced by the catalyzed reaction was measured by first admixing 20 ul of 5M HCl, 80 ul acetone and 10 ul 0.5% (w/v) sodium nitrite to the reaction admixture to form a second admixture and maintaining that second admixture for 3 minutes at room temperature. Thereafter, 10 ul 2.5% (w/v) ammonium sulfamate was added to form a third admixture that was maintained for 2 minutes at room temperature. A still further 10 ul of 0.5% (w/v) N-(1-napthyl)ethylenediamine dihydrochloride was added to form a fourth admixture that was then maintained for 15 minutes at room temperature. Thereafter the resulting azo dye present in the fourth admixture was measured by absorbance spectroscopy at 540 nanometers (nm) for aminoquinaldine using a Model EL 309 Automated Microplate Reader (Bio-Tek Instruments, Winooski, Vt.).

[3] = tested on: Monoclonal Receptor 37G2; experiment: Kinetics of hydrolysis by receptor 37G2
Description: Reaction kinetics were studied using three reactant ligands as substrates for monoclonal receptors 37G2 and 22F5. Data from initial rates were consistent with Michaelis-Menten reaction mechanism for a usual enzyme-substrate system. Initial rates were followed using at 271 nm using a U.V.-visible spectorphotometer for Compound 17, and a fluorescence spectrometer for Compounds 5 and 20, using an excitation wavelength of 355 nm and an emission wavelength of 455 nm for both compounds.
Lineweaver-Burke plots for the catalyzed hydrolysis of Compounds 17, 5 and 20 obtained in the presence and absence of Compound 12i as inhibitor were prepared as discussed for FIG. 4. In particular, Compound 17 was present at concentrations of 1-16 uM with inhibitor concentrations of 100 and 300 nanomolar (nM). Compound 5 was present at concentrations of 1-10 uM with inhibitor concentrations of 100 and 200 nM. Compound 20 was present at concentrations of 2-20 uM with inhibitor concentrations of 25 and 100 nM. […]
50 mM phosphate buffer at a pH value of 8.0. The reactant ligand was
dissolved in dioxane and admixed in the amounts discussed above. Two
milliliters of reaction solution were utilized as was a dioxane
concentration of 2 percent by volume. Assays with Compound 17 as reac tan
ligand utilized 500 nanomolar receptor (based on a molecular weight of
150,000 daltons) in the above buffer, using the reactant ligand dissolved
in dioxane and a total dioxane concentration of 2 percent by volume.

| inactivation of receptor [1] | stoichiometry, mole of ester per mole of combining sites ([1]; IgG molecular weight 150,000 assumed) | rate change pH 8.0 versus pH 7.0 ([1]; preliminary) | Km ([3]; 50 mM phosphate pH 8.0, 500 nM receptor, 2% dioxane, figure = Km × 10^6) | kcat ([3]; pH 8.0) | Vmax ([3]; pH 8.0, 500 nM receptor, figure = Vmax × 10^9) | SMILES | receptors (of eight) that catalyzed hydrolysis of the compound [2] |
| --- | --- | --- | --- | --- | --- | --- | --- |
| specific inactivator | one | modest rate increase |  |  |  | O=C(Cc1ccc(NC(=O)C(F)(F)F)cc1)Oc1ccc2ccc(=O)oc2c1 [Compound 5] | all of the receptors catalyzed hydrolysis |
|  |  |  | 15 µM | 0.0016 s⁻¹ | 0.042 µM/min | CC(=O)Nc1ccc(CC(=O)Oc2cccc3ccccc23)cc1 [Compound 17] | all of the receptors catalyzed hydrolysis |
